In patent US12458021B2, “Microbiocidal derivatives” (SYNGENTA CROP PROTECTION AG, priority 2019, dated 2025):

Legend:
Assay type in all cases: cell-based
[1] = tested on: Monographella nivalis (Microdochium nivale); assay: Monographella nivalis (Microdochium nivale) / liquid culture (foot rot cereals); details: PDB potato dextrose broth, 24° C., 4-5 days after application, read-out: control of Monographella nivalis (inhibition of growth, photometric)
Description: Example B7: Monographella nivalis (Microdochium nivale)/Liquid Culture (Foot Rot Cereals) Conidia of the fungus from cryogenic storage are directly mixed into nutrient broth (PDB potato dextrose broth). After placing a (DMSO) solution of test compound into a microtiter plate (96-well format), the nutrient broth containing the fungal spores is added. The test plates are incubated at 24° C. and the inhibition of growth is determined photometrically 4-5 days after application. […] […]-190.

[2] = tested on: Glomerella lagenarium (Colletotrichum lagenarium); assay: Glomerella lagenarium (Colletotrichum lagenarium) / liquid culture (anthracnose); details: Colletotrichum orbiculare, PDB potato dextrose broth, 24° C., 3-4 days after application, read-out: control of Glomerella lagenarium (inhibition of growth, photometric)
Description: Example B3: Glomerella lagenarium (Colletotrichum lagenarium)/Liquid Culture (Anthracnose) Conidia of the fungus from cryogenic storage are directly mixed into nutrient broth (PDB potato dextrose broth). After placing a (DMSO) solution of test compound into a microtiter plate (96-well format), the nutrient broth containing the fungal spores is added. The test plates are incubated at 24° C. and the inhibition of growth is measured photometrically 3-4 days after application. […] […]-191.

[3] = tested on: Mycosphaerella graminicola (Septoria tritici); assay: Mycosphaerella graminicola (Septoria tritici) / liquid culture (Septoria blotch); details: Zymoseptoria tritici, PDB potato dextrose broth, 24° C., 4-5 days after application, read-out: control of Mycosphaerella graminicola (inhibition of growth, photometric)
Description: Example B15: Mycosphaerella graminicola (Septoria tritici)/Liquid Culture (Septoria Blotch) Conidia of the fungus from cryogenic storage are directly mixed into nutrient broth (PDB potato dextrose broth). After placing a (DMSO) solution of test compound into a microtiter plate (96-well format), the nutrient broth containing the fungal spores is added. The test plates are incubated at 24° C. and the inhibition of growth is determined photometrically 4-5 days after application. […] […]-191.

## COc1ccc(Nc2nccs2)nc1C(=O)NC1CCC1(C)C (stereo not drawn) [Compound P-5, N-(2,2-dimethylcyclobutyl)-3-methoxy-6-(thiazol-2-ylamino)pyridine-2-carboxamide]
[1]
  inhibition at 20 ppm: ≥ 80%

## CC1(C)CCC1NC(=O)c1nc(Nc2cncc(F)c2)ccc1O (stereo not drawn) [Compound P-12, N-(2,2-dimethylcyclobutyl)-6-[(5-fluoro-3-pyridyl)amino]-3-hydroxy-pyridine-2-carboxamide]
[1]
  inhibition at 20 ppm: ≥ 80%

## CC1(C)CCC1NC(=O)c1nc(Nc2ccc(F)nc2)ccc1O (stereo not drawn) [Compound P-13, N-(2,2-dimethylcyclobutyl)-6-[(6-fluoro-3-pyridyl)amino]-3-hydroxy-pyridine-2-carboxamide]
[2]
  inhibition at 20 ppm: ≥ 80%
[1]
  inhibition at 20 ppm: ≥ 80%

## CC1(C)CCC1NC(=O)c1nc(Nc2ccnc(Cl)c2)ccc1O (stereo not drawn) [Compound P-14, 6-[(2-chloro-4-pyridyl)amino]-N-(2,2-dimethylcyclobutyl)-3-hydroxy-pyridine-2-carboxamide]
[2]
  inhibition at 20 ppm: ≥ 80%
[1]
  inhibition at 20 ppm: ≥ 80%

## CC1(C)CCC1NC(=O)c1nc(Nc2cncnc2)ccc1O (stereo not drawn) [Compound P-15, N-(2,2-dimethylcyclobutyl)-3-hydroxy-6-(pyrimidin-5-ylamino)pyridine-2-carboxamide]
[1]
  inhibition at 20 ppm: ≥ 80%

## CC1(C)CCC1NC(=O)c1nc(Nc2ccc3c(c2)OCO3)ccc1O (stereo not drawn) [Compound P-17, 6-(1,3-benzodioxo1-5-ylamino)-N-(2,2-dimethylcyclobutyl)-3-hydroxy-pyridine-2-carboxamide]
[1]
  inhibition at 20 ppm: ≥ 80%

## COCC(=O)Oc1ccc(N(C(=O)COC)c2cc(F)cc(F)c2)nc1C(=O)NC1CCC1(C)C (stereo not drawn) [Compound P-24, [6-(3,5-difluoro-N-(2-methoxyacetyl)anilino)-2-[(2,2-dimethylcyclobutyl)carbamoyl]-3-pyridyl] 2-methoxyacetate]
[2]
  inhibition at 20 ppm: ≥ 80%

## COc1ccc(Nc2cc(F)cc(F)c2)nc1C(=O)NCC#CC(C)(C)C [Compound P-28, 6-(3,5-difluoroanilino)-N-(4,4-dimethylpent-2-ynyl)-3-methoxy-pyridine-2-carboxamide]
[3]
  inhibition at 20 ppm: ≥ 80%

## COc1ccc(Nc2cnsc2)nc1C(=O)NCC#CC(C)(C)C [Compound P-34, N-(4,4-dimethylpent-2-ynyl)-6-(isothiazol-4-ylamino)-3-methoxy-pyridine-2-carboxamide]
[3]
  inhibition at 20 ppm: ≥ 80%

## COc1ccc(NC2CCC2)nc1C(=O)NCC(C)(C)C [Compound P-41, 6-(cyclobutylamino)-N-(2,2-dimethylpropyl)-3-methoxy-pyridine-2-carboxamide]
[3]
  inhibition at 20 ppm: ≥ 80%

## COc1ccc(Nc2cc(F)cc(F)c2)nc1C(=O)NCc1cccc2c1OC(F)(F)O2 [Compound P-58, 6-(3,5-difluoroanilino)-N-[(2,2-difluoro-1,3-benzodioxol-4-yl)methyl]-3-methoxy-pyridine-2-carboxamide]
[2]
  inhibition at 20 ppm: ≥ 80%
[3]
  inhibition at 20 ppm: ≥ 80%

## COc1ccc(Nc2cc(F)cc(F)c2)nc1C(=O)NCC1(c2ccc(C(F)(F)F)cn2)CC1 [Compound P-72, 6-(3,5-difluoroanilino)-3-methoxy-N-[[1-[5-(trifluoromethyl)-2-pyridyl]cyclopropyl]methyl]pyridine-2-carboxamide]
[2]
  inhibition at 20 ppm: ≥ 80%

## COc1ccc(Nc2cc(F)cc(F)c2)nc1C(=O)NC1CCN(S(=O)(=O)C(C)C)CC1 [Compound P-77, 6-(3,5-difluoroanilino)-N-(1-isopropylsulfonyl-4-piperidyl)-3-methoxy-pyridine-2-carboxamide]
[2]
  inhibition at 20 ppm: ≥ 80%

## COc1ccc(Nc2cnsc2)nc1C(=O)NCc1ccc(Oc2ccccc2)cc1 [Compound P-81, 6-(isothiazol-4-ylamino)-3-methoxy-N-[(4-phenoxyphenyl)methyl]pyridine-2-carboxamide]
[2]
  inhibition at 20 ppm: ≥ 80%
[1]
  inhibition at 20 ppm: ≥ 80%

## COc1ccc(Nc2cnsc2)nc1C(=O)NCc1cccc2c1OC(F)(F)O2 [Compound P-82, N-[(2,2-difluoro-1,3-benzodioxol-4-yl)methyl]-6-(isothiazol-4-ylamino)-3-methoxy-pyridine-2-carboxamide]
[2]
  inhibition at 20 ppm: ≥ 80%
[1]
  inhibition at 20 ppm: ≥ 80%

## COc1ccc(Nc2cnsc2)nc1C(=O)NCC1(C)CCOC2(CCC2)C1 (stereo not drawn) [Compound P-84, 6-(isothiazol-4-ylamino)-3-methoxy-N-[(8-methyl-5-oxaspiro[3.5]nonan-8-yl)methyl]pyridine-2-carboxamide]
[2]
  inhibition at 20 ppm: ≥ 80%

## COc1ccc(Nc2cnsc2)nc1C(=O)NCCc1ccc(OC(F)(F)F)cc1 [Compound P-85, 6-(isothiazol-4-ylamino)-3-methoxy-N-[2-[4-(trifluoromethoxy)phenyl]ethyl]pyridine-2-carboxamide]
[2]
  inhibition at 20 ppm: ≥ 80%

## CC(C)(C)CNC(=O)c1nc(Nc2cc(F)nc(F)c2)ccc1O [Compound P-100, 6-[(2,6-difluoro-4-pyridyl)amino]-N-(2,2-dimethylpropyl)-3-hydroxy-pyridine-2-carboxamide]
[2]
  inhibition at 20 ppm: ≥ 80%

## COc1cc(Nc2cc(F)cc(F)c2)nc(C(=O)NC2CCC2(C)C)c1 (stereo not drawn) [Compound P-101, 6-(3,5-difluoroanilino)-N-(2,2-dimethylcyclobutyl)-4-methoxy-pyridine-2-carboxamide]
[2]
  inhibition at 20 ppm: ≥ 80%

## CC(C)(C)CNC(=O)c1nc(Nc2cc(F)nc(F)c2I)ccc1O [Compound P-106, 6-[(2,6-difluoro-3-iodo-4-pyridyl)amino]-N-(2,2-dimethylpropyl)-3-hydroxy-pyridine-2-carboxamide]
[1]
  inhibition at 20 ppm: ≥ 80%

## COc1ccc(Nc2cc(F)cc(F)c2)nc1C(=O)NCc1cc(C(F)(F)F)cc(C(F)(F)F)c1 [Compound P-115, N-[[3,5-bis(trifluoromethyl)phenyl]methyl]-6-(3,5-difluoroanilino)-3-methoxy-pyridine-2-carboxamide]
[3]
  inhibition at 20 ppm: ≥ 80%

## COc1ccc(Nc2cc(Cl)cc(Cl)c2)nc1C(=O)NCC(C)(C)C [Compound P-130, 6-(3,5-dichloroanilino)-N-(2,2-dimethylpropyl)-3-methoxy-pyridine-2-carboxamide]
[2]
  inhibition at 20 ppm: ≥ 80%
[3]
  inhibition at 20 ppm: ≥ 80%

## COc1ccc(Nc2ccc(Cl)c(Cl)c2)nc1C(=O)NCC(C)(C)C [Compound P-131, 6-(3,4-dichloroanilino)-N-(2,2-dimethylpropyl)-3-methoxy-pyridine-2-carboxamide]
[2]
  inhibition at 20 ppm: ≥ 80%
[1]
  inhibition at 20 ppm: ≥ 80%

## COc1ccc(Nc2cc(F)c(Cl)c(F)c2)nc1C(=O)NCC(C)(C)C [Compound P-135, 6-(4-chloro-3,5-difluoro-anilino)-N-(2,2-dimethylpropyl)-3-methoxy-pyridine-2-carboxamide]
[3]
  inhibition at 20 ppm: ≥ 80%

## COc1ccc(Nc2ccc(Cl)c(C)c2)nc1C(=O)NCC(C)(C)C [Compound P-138, 6-(4-chloro-3-methyl-anilino)-N-(2,2-dimethylpropyl)-3-methoxy-pyridine-2-carboxamide]
[2]
  inhibition at 20 ppm: ≥ 80%
[1]
  inhibition at 20 ppm: ≥ 80%

## COc1ccc(Nc2ccc(C)cc2)nc1C(=O)NCC(C)(C)C [Compound P-141, N-(2,2-dimethylpropyl)-3-methoxy-6-(4-methylanilino)pyridine-2-carboxamide]
[2]
  inhibition at 20 ppm: ≥ 80%

## COc1ccc(Nc2ccc(Cl)c(Cl)c2)nc1C(=O)NC(C)(C)C [Compound P-149, N-tert-butyl-6-(3,4-dichloroanilino)-3-methoxy-pyridine-2-carboxamide]
[2]
  inhibition at 20 ppm: ≥ 80%

## COc1ccc(Nc2ccc(C(F)(F)F)c(F)c2)nc1C(=O)NC(C)(C)C [Compound P-154, N-tert-butyl-6-[3-fluoro-4-(trifluoromethyl)anilino]-3-methoxy-pyridine-2-carboxamide]
[2]
  inhibition at 20 ppm: ≥ 80%

## COc1ccc(Nc2ccc(Cl)c(C)c2)nc1C(=O)NC(C)(C)C [Compound P-158, N-tert-butyl-6-(4-chloro-3-methyl-anilino)-3-methoxy-pyridine-2-carboxamide]
[2]
  inhibition at 20 ppm: ≥ 80%

## COc1ccc(Nc2ccc(C)cc2)nc1C(=O)NC(C)(C)C [Compound P-161, N-tert-butyl-3-methoxy-6-(4-methylanilino)pyridine-2-carboxamide]
[2]
  inhibition at 20 ppm: ≥ 80%

## COc1ccc(Nc2cncc(C(F)(F)F)c2)nc1C(=O)NC(C)(C)C [Compound P-163, N-tert-butyl-3-methoxy-6-[[5-(trifluoromethyl)-3-pyridyl]amino]pyridine-2-carboxamide]
[2]
  inhibition at 20 ppm: ≥ 80%

## COc1ccc(Nc2ccc3cnn(Cc4ccccc4)c3c2)nc1C(=O)NC(C)(C)C [Compound P-165, 6-[(1-benzylindazol-6-yl)amino]-N-tert-butyl-3-methoxy-pyridine-2-carboxamide]
[2]
  inhibition at 20 ppm: ≥ 80%

## COC(=O)N(c1cc(F)cc(F)c1)c1ccc(OC)c(C(=O)NC2CCC2(C)C)n1 (stereo not drawn) [Compound P-191, methyl N-(3,5-difluorophenyl)-N-[6-[(2,2-dimethylcyclobutyl)carbamoyl]-5-methoxy-2-pyridyl]carbamate]
[2]
  inhibition at 20 ppm: ≥ 80%
[3]
  inhibition at 20 ppm: ≥ 80%
